Laboratory results published in patent publication US11559528B2, “BACE1 inhibition for the treatment of cancer” (The Cleveland Clinic Foundation, priority 2019, dated 2023).

Columns and labels:
STAT3 (pSTAT3-Y705) = test: Immunoblot of STAT3 activating phosphorylation in U937-derived M2 macrophages; format: cell-based, human; conditions: MK-8931 50 μg/mL three days
Excerpt: FIG. 7, panels A-G. BACE1 Maintains M2 Macrophages through STAT3 Activation (A) Immunoblot analyses of STAT3 and STAT6 activation (pSTAT3-Y705 and pSTAT6-Y641) in U937-derived M2 macrophages affected by BACE1 knockdown. […] (B) Immunoblot analysis of STAT3 and STAT6 activation (pSTAT3-Y705 and pSTAT6-Y641) in U937-derived M2 macrophages in response to MK-8931 treatment. […] (C-E) In vivo analysis of STAT3 activating phosphorylation in TAMs by double immunofluorescent staining of IBA1 with pSTAT3-Y705 in GBM xenografts treated with MK-8931 or vehicle control. GBM xenografts were established by implantation of glioma stem cells (T4121) through intracranial injection. […] Representative images (C) showing the fluorescent staining of IBA1 (in green) and the pSTAT3 (in red) in MK-8931-treated or control GBM xenografts. […] Scale bar represents 3 μM. Ctl: Control. MK: MK-8931. […] Ectopic expression of STAT3-C attenuated the M2 to M1 switch caused by BACE1 knockdown.

GBM xenografts (T387) = test: Intracranial GBM xenografts from T387 glioma stem cells; format: in vivo, mouse
Excerpt: FIG. 13, panels A-C. BACE1 Inhibition by MK-8931 Converts M2 TAMs into M1 Macrophages in GBM Xenografts. (A and B) Density analysis of M2 TAMs by immunofluorescent staining of the M2 TAM marker (CD163 or FIZZ1) and the total TAM marker IBA1 and in GBM xenografts (T387) treated with MK-8931 or vehicle control. GBM xenografts were established by implantation of glioma stem cells (T387) through intracranial injection. […] Representative immunofluorescent images (A) showing M2 TAMs (CD163′ or FIZZ1^+, in red) and total TAMs (IBA1^+, in green) in the MK-8931-treated or control GBM xenografts. […] (C and D) Density analysis of M1 TAMs by immunofluorescent staining of the M TAM marker (HLA-DR or CD11c) and the total TAM marker IBA1 and in GBM xenografts (T387) treated with MK-8931 or vehicle control. […] Representative immunofluorescent images (C) showing M1 TAMs (HLA-DR^+ or CD11c^+, in red) and total TAMs (IBA1^+, in green) in the MK-8931-treated or control GBM xenografts. […] Scale bars represent 3 μM. Ctl: Control; MK: MK-8931.
(A-C) A preclinical trial of MK-8931 for GBM treatment in GSC-derived xenograft models. […] When humane endpoints occur, mouse was anesthetized and brain bearing tumor was harvested. Representative bioluminescent images (A) of intracranial GBM xenografts treated with MK-8931 or the vehicle control on day 7 (before treatment), day 17 and day 27 (treatment for 10 and 20 days) are shown. […] (D and E) In vivo phagocytosis of TAMs against human glioma cells in GBM xenografts treated with MK-8931 or the vehicle control. […] Representative images (D) showing in vivo TAM phagocytosis as the inclusion body of a glioma cell (TRA-1-85+, in red) within a TAM (IBA1^+, in green) in the MK-8931 treated GBM xenografts but not in the control tumors. […] (F and G) Detection of apoptosis by immunofluorescent staining of cleaved caspase-3 the GSC-derived xenografts treated with MK-8931 or the vehicle control. […] (H and I) Vessel density analysis by immunofluorescent staining of CD31 in the GSC-derived xenografts treated with MK-8931 or the vehicle control.

[1] = 30 mg/kg once daily oral gavage two weeks, p<0.001
[2] = 30 mg/kg once daily oral, p<0.01
[3] = 30 mg/kg once daily oral, p<0.05

## CN1C(N)=N[C@](C)(c2cc(NC(=O)c3ccc(F)cn3)ccc2F)CS1(=O)=O [MK-8931]
STAT3 (pSTAT3-Y705)
  activating phosphorylation of STAT3 (pSTAT3-Y705): significantly down-regulated
GBM xenografts (T387); [1]
  density of M1 TAMs (HLA-DR+/IBA1+ or CD11c+/IBA1+): significantly increased density of M1 TAMs
  density of M2 TAMs (CD163+/IBA1+ or FIZZ1+/IBA1+): significantly reduced density of M2 TAMs
GBM xenografts (T387); 30 mg/kg once daily oral, day 7, 17 and 27
  tumor growth (mean bioluminescence): Suppressed GBM Tumor Growth
GBM xenografts (T387); 30 mg/kg once daily oral, log-rank p<0.05
  survival (Kaplan-Meier): significantly extended the survival of animals bearing the GBM xenografts
GBM xenografts (T387); [2]
  apoptosis (cleaved caspase-3+ cells): significantly increased apoptosis
  in vivo TAM phagocytosis (inclusion bodies): promoted TAM phagocytosis
  proliferative cells (Ki-67+): significantly reduced proliferative cells
GBM xenografts (T387); [3]
  GSC population (SOX2+ cells): significant reduced GSCs
  vessel density (CD31): significantly reduced vessel density
